Laboratory results from patent US20250320443A1, “Human Brain Organoid, methods for making the brain organoid, and methods of using the brain organoid for high throughput rapid screening and/or evaluation of agents” (NeyroblastGX LLC, priority 2023, published 2025).

Legend:
[1] = Preparation of curcumin with H2O (visual); type: physicochemical; conditions: glass vial, non-formulated
Experimental: (§1) FIG. 6A-6H. ChP OrG efficiently screens drug permeability. (FIG. 6A) We have used curcumin (Cur), a natural polyphenolic antioxidant that can disaggregate Amyloid beta (AB) and tau. (FIG. 6B) We have prepared the Cur with H2O and lipids to generate a solid lipid curcumin particle (SLCP). […] (FIG. 6D-6F) We added SLCP and non-formulated (H2O dissolved) Cur to the blood CSF barrier brain OrG (ChP OrG) for 72 h and obtained images. (FIG. 6G) We then collected CSF via a syringe and processed it to measure optical density using a plate reader to determine whether SLCP Cur (500 μM) was permeable into CSF. […] Our novel B-CSFb grown on an HT electrode plate is highly efficient in studying drug permeability on the HT scale and provides insight into using our ChP OrG to accelerate the drug development process for various CNS diseases. Scale bar 100 μm.

[2] = test system: blood CSF barrier brain OrG (ChP OrG); assay: ChP OrG drug permeability into CSF (optical density of collected CSF); type: cell-based, human; conditions: 72 h, SLCP Cur 500 μM, CSF collected via syringe
Experimental: as §1
To generate ChP OrG, we use methods similar to those used to generate cCerebral OrG, except for the composition of OrGspheroid SRB media, which contained 50% KSR, 0.1% lipid-rich albumin (AlbuMAX), including all other components as stated in Example 1. For ChP OrG, neural induction was up to 9 days. Neural induction medium was the same as Example 2. Further, neural-induced OrGspheroid (>500 μm) was seeded with gel-matrix domes with a volume of OrGspheroid to MvECs at a 1:20 ratio. […]

[3] = test system: brain OrG; assay: NGL HT electrode plate signal of brain OrG; type: cell-based, human; conditions: 64000 Hz
Source text: HT electroconductive sensing array combined with our optimized brain OrG is the first innovative technology that can be marketed for floating brain OrG for screening pathogens, drugs, and toxicity at a rapid and robust scale. Brain OrG-specific shape 1-3 mm range grown on an electroconductive plate designed and developed by NGL with pay-based service to obtain ECIS base electrode with a desired signal with or without agents. ECIS here refers to electric cell-substrate impedance sensing. We first developed 8 well plates with an electrode. […] We used a nanofarads capacitance (nF) signal curve at 64000 Hz. We determined that the media sample (without OrG, baseline) average signal is 3.7 nF compared to cerebral OrG (˜2 nF), and the same measurement was also acquired by resistance (Ohms).
To determine HT screening various agents, we designed and developed a next-generation HT electrode plate where brain OrG can grow in floating conditions with electrode chambers that can control OrG size without batch-to-batch variations. To develop these electrode sensor chambers (FIG. 7A-7B), we have designed and developed a typical 8×12 configuration that allows 96 samples to be measured and can be upgraded to 384 wells. […] These converters will sample at four times the excitation frequency, thus allowing both the amplitude and phase of the signal at V1 to V2 be measured with an algorithm.

[4] = test system: synaptophysin and PSD-95 in cCerebral OrG; assay: ICC of synaptic marker proteins in cCerebral OrG injected with AD toxic proteins; type: cell-based, human; conditions: AB or tau alone, injected twice with 10-50 μl (1 mg/ml)
Experimental: FIG. 8A-8D. Verify compatibility to screening NGL ready-to-use brain OrG in other screening platforms with multiple agents. (FIG. 8A) NGL cCerebral was injected twice with 10-50 μl (1 mg/ml) of Alzheimer's disease (AD) toxic proteins (AB and tau oligomers). (FIG. 8B) We found AB and tau together, especially 50 μg concentration, reduced in higher levels of pre- and post-synaptic density marker proteins (synaptophysin and PSD-95) compared to 10 μg concentrations using ICC. […] (FIG. 8C) We compared synaptic loss with the electrode plate signal developed by Applied Biophysics (ABP). We have plated our cCerebral OrG onto ABP electrodes with gel-matrix twice coating to attach efficiently onto cCerebral OrG onto electrodes. Usually, marketed electrode attaching floating OrG tends to be challenging. OrG often slips or moves away from the electrode, thus needing twice or triple-coating layers with gels, providing a great insight into our floating electrode plate novelty compared to other marketed electrodes. After the cCerebral OrG attachment was maintained and grown on the electrode plate for one week and treated with or without the combination of AB and tau (10 and 50 μg).
ICC is a common cellular protein or antigen-detecting and visualization technique that can recognize the target of interest or specific marker expression in cells via quantification imaging. […]

| Cur concentration in CSF (permeable into CSF / B-CSFb) [2] | Cur concentration in CSF (permeable into CSF / B-CSFb) ([2]; listed as unformulated Cur) | Compound | behaviour when prepared with H2O [1] | brain OrG-derived toxic response signal compared to untreated brain OrG [3] | synaptic proteins (synaptophysin and PSD-95) [4] |
| --- | --- | --- | --- | --- | --- |
| not detected in CSF | undetected in CSF | COc1cc(/C=C/C(=O)CC(=O)/C=C/c2ccc(O)c(OC)c2)ccc1O [non-formulated Cur, curcumin] | precipitated on the bottom of the glass vial | – | – |
| – | – | AB: synthetic amyloid-beta (AB) oligomers, Alzheimer's disease toxic protein | – | significantly and sensitively differentiated | unable to significantly reduce synaptic proteins |
